# Source: US4510144A, “Methods of imparting immunomodulating activity with dihydrothiazolo purine derivatives” (Newport Pharmaceuticals International, priority 1982, dated 1985)
# Read-outs that look alike come from different tables or passages of the source.
# What was measured:
# [1] = tested on: murine spleen cells, LPS induced (B-cells); assay: LPS induced lymphocyte proliferation in mouse spleen cells in vitro; format: cell-based, mouse (Balb/C); conditions: for activity at 0.01 µg/mL / activity at 0.1 µg/mL / activity at 1 µg/mL / activity at 2.5 µg/mL / activity at 5 µg/mL / activity at 25 µg/mL / activity at 50 µg/mL: Mus musculus, B-cell
# Text: (1) Mitogen-(Lipopolysaccharide, LPS or Con A) induced lymphocyte proliferation using murine spleen cells (in vitro)
# 1. […] LPS is a mitogen which acts preferentially on B-cells. […] Con A is considered a T-cell mitogen.
# 1. Balb/C male mice, 7-8 weeks old, are used up to 20-24 weeks of age.
# 2. The animals are sacrificed by cervical dislocation and the animals' left sides swabbed with 70% ethanol. An incision is made between the lower ribs and pelvis, laterally from front to back, and the skin retracted. Aseptic technique is to be observed from this point on.
# 3. The spleen is gently removed with sterile forceps. […] When all spleens have been collected and cleaned they are placed in a second petri dish containing 3 ml cold RPMI.
# 4. Spleen cell suspensions are prepared by gentle mincing of the tissue with a sterile blade and filtering through #100 stainless steel mesh.
# 6. An aliquot of the above suspension is prepared for cell counting as follows: 0.1 ml of suspension is diluted to 1.0 ml with 3% acetic acid and let stand at room temperature for at least five minutes. The sample is then diluted 1:100 with "Isoton II" (Curtis-Matheson Co.) and counted in a coulter counter.
# MURINE SPLENOCYTE STIMULATION WITH CONCANAVALIN A (CON A), LIPOPOLYSACCHARIDE (LPS), AND ALLOGENEIC SPLENOCYTES (LMC).
# There is set forth below the standard procedure which should be modified according to the solubility and other properties of the particular compound tested.
# Add ~10 ml RPMI to 1.79 g HEPES and vortex until completely dissolved. […] Allow to warm temperature before use.
# 6. LPS (Sigma, E, coli serotype #011:84)--~1 mg/ml. […] Remove ~10 ml for dissolving HEPES (0.358 g) and filter HEPES solution. Add four 25 mg bottles of LPS to remaining media and incubate at 37° C. for 1 hour. Filter through 0.22 μm filters, add filtered HEPES, aliquot in 2 ml and store at -70° C.
# 8. Tritiated thymidine (^3 H-TdR, Schwartz-Mann, 6 Ci/mM). Remove a slightly larger volume of ^3 H-TdR than needed from vial with a 1 cc syringe and place volume in the cap of a small sterile plastic tube. […] Vortex thoroughly before adding to plates.
# 1. Animals are sacrificed by cervical dislocation killing one from each group and processing the cells individually before killing the next animal. Swab each animal with 70% ethanol before surgery. […] Use 8 vertical strokes (or enough to break up all tissue) with Teflon-tipped homogenizer. Filter each sample through a 100 mesh screen into a 50 ml tube. […] After all samples have been spun, vortex each briefly and let sit for 1 hour. Vortex each sample ~5 seconds, waiting ~10 seconds between each sample. Let sit 5 minutes, then pipet cell suspension into 5 ml (12×75 mm) tube being careful not to remove any sediment. Remove 50 ul cell suspension using micropipetter, carefully wipe pipet tip with kimwipe and pipet into 20 ml Isoton in Coulter counter vial, rinsing pipet several times in the Isoton. Add 6 drops of CyMet and swirl vial to mix. Use the following Coulter counter settings: Amplification-1, Threshold-10, and Aperture Current-1. Clean counter with Isoterge the morning of experiment and count background before standardizing with CH 0.60 Hematology Controls. After cell counts are obtained, dilute to 6×10^6 cells/ml with supplemented RPMI and aliquot into 3 tubes for the 3 assays.
# 1. Pipet 100 μl control media (supplemented RPMI) or appropriate dilution of mitogen (starting with lowest concentration) into microtiter plate using Titertek multi-channel pipetter. Place plates in 37° C. CO2 incubator with CO2 set at 0.5 after each plate has been pipetted. Pipet 100 μl responder cells into wells starting with most dilute mitogen concentration. Place plates in incubator as they are filled and after all plates are in incubator, let sit for 10-20 minutes. Wrap plates with plastic wrap, recover with top, replace in incubator, and reset CO2 to ~0.05. Save ~50 ml supplemented RPMI at 4° C. for thymidine dilution.
# [2] = tested on: splenocytes from athymic mice (theta positive cells); assay: induction of theta positive cells in splenocytes from athymic (nude) mice in vitro; format: cell-based; conditions: for percent of theta positive cells: mean of three experiments, saline control 8
# Text: (4) Induction of theta positive cells in nude mice (in vitro).
# [3] = preliminary toxicity studies in Balb/C mice; format: in vivo
# Description: If it is assumed 50 mg/kg is the minimum lethal dose and it is assumed <0.05 mg/kg is the minimum effective dose, the lowest possible therapeutic ratio for NPT 16416 is 50/0.05 or 1000/1.0. It is believed that the toxicity is far less by the oral route since 500 mg/kg p.o. produced no deaths in Balb/c mice.
# [4] = tested on: lymphocytes from normal volunteers (active E-rosettes); assay: enhancement of active E-rosettes, lymphocytes from normal volunteers in vitro; format: cell-based; conditions: for % E-rosettes (active): control 37
# Description: The effects of NPT 16416 on stimulating formation of active rosettes when incubated with lymphocytes in vitro from normal volunteers is described in Table XII. It is important to note that 5×10^-8M concentration of NPT 16416 is capable of producing a 36.5% enhancement of Active E-Rosettes. The enhancement of Active E-Rosettes is biologically important because that fraction of lymphocytes (T-cells) which are the active rosettes are found to be deficient in tumor patients and virus infected individuals. Restoration of this deficiency should benefit the patient.
compound,measurement,setting,value
"Oc1ncnc2c1nc1n2CCS1 [NPT 16416, 3-hydroxy-7,8-dihydrothiazolo-[3,2e]-purine]",activity at 0.01 µg/mL,[1]; read-out: Hi Mitogen D/C LPS,105%
same,activity at 0.01 µg/mL,[1]; read-out: Lo Mitogen D/C LPS,130%
same,activity at 0.1 µg/mL,"[1]; drug 100 ng/ml, LPS 5 μg/ml, drug/control, read-out: Lo Mitogen D/C LPS",157%
same,activity at 0.1 µg/mL,"[1]; drug 100 ng/ml, LPS 100 μg/ml, drug/control, read-out: Hi Mitogen D/C LPS",114%
same,activity at 1 µg/mL,"[1]; drug 1,000 ng/ml, LPS 5 μg/ml, drug/control, read-out: Lo Mitogen D/C LPS",135%
same,activity at 1 µg/mL,"[1]; drug 1,000 ng/ml, LPS 5 μg/ml, read-out: LPS D/C (maximum values)",201%
same,activity at 1 µg/mL,"[1]; drug 1,000 ng/ml, LPS 100 μg/ml, drug/control, read-out: Hi Mitogen D/C LPS",117%
same,activity at 2.5 µg/mL,"[1]; drug 2,500 ng/ml, LPS 5 μg/ml, drug/control, read-out: Lo Mitogen D/C LPS",136%
same,activity at 2.5 µg/mL,"[1]; drug 2,500 ng/ml, LPS 100 μg/ml, drug/control, read-out: Hi Mitogen D/C LPS",107%
same,activity at 5 µg/mL,"[1]; drug 5,000 ng/ml, LPS 5 μg/ml, drug/control, P < 0.05, read-out: Lo Mitogen D/C LPS",168%
same,activity at 5 µg/mL,"[1]; drug 5,000 ng/ml, LPS 100 μg/ml, drug/control, read-out: Hi Mitogen D/C LPS",105%
same,activity at 25 µg/mL,"[1]; drug 25,000 ng/ml, LPS 5 μg/ml, drug/control, P < 0.005, read-out: Lo Mitogen D/C LPS",249%
same,activity at 25 µg/mL,"[1]; drug 25,000 ng/ml, LPS 5 μg/ml, read-out: LPS D/C (maximum values)",236%
same,activity at 25 µg/mL,"[1]; drug 25,000 ng/ml, LPS 100 μg/ml, drug/control, P < 0.025, read-out: Hi Mitogen D/C LPS",157%
same,activity at 50 µg/mL,"[1]; drug 50,000 ng/ml, LPS 5 μg/ml, drug/control, P < 0.005, read-out: Lo Mitogen D/C LPS",280%
same,activity at 50 µg/mL,"[1]; drug 50,000 ng/ml, LPS 100 μg/ml, drug/control, P < 0.005, read-out: Hi Mitogen D/C LPS",189%
same,CPM + LPS,"[1]; drug 10 ng/ml, LPS 5 μg/ml","1,458 CPM"
same,CPM + LPS,"[1]; drug 10 ng/ml, LPS 100 μg/ml","8,603 CPM"
same,CPM + LPS,"[1]; drug 100 ng/ml, LPS 5 μg/ml","1,760 CPM"
same,CPM + LPS,"[1]; drug 100 ng/ml, LPS 100 μg/ml","8,518 CPM"
same,CPM + LPS,"[1]; drug 1,000 ng/ml, LPS 5 μg/ml","1,515 CPM"
same,CPM + LPS,"[1]; drug 1,000 ng/ml, LPS 100 μg/ml","8,689 CPM"
same,CPM + LPS,"[1]; drug 2,500 ng/ml, LPS 5 μg/ml","1,522 CPM"
same,CPM + LPS,"[1]; drug 2,500 ng/ml, LPS 100 μg/ml","7,975 CPM"
same,CPM + LPS,"[1]; drug 5,000 ng/ml, LPS 5 μg/ml","1,881 CPM"
same,CPM + LPS,"[1]; drug 5,000 ng/ml, LPS 100 μg/ml","7,788 CPM"
same,CPM + LPS,"[1]; drug 25,000 ng/ml, LPS 5 μg/ml","2,789 CPM"
same,CPM + LPS,"[1]; drug 25,000 ng/ml, LPS 100 μg/ml","11,683 CPM"
same,CPM + LPS,"[1]; drug 50,000 ng/ml, LPS 5 μg/ml","3,132 CPM"
same,CPM + LPS,"[1]; drug 50,000 ng/ml, LPS 100 μg/ml","14,065 CPM"
same,"effect on B-cell response / LPS induced proliferation, in words",[1]; in vitro,enhance B-cell proliferation
same,augmentation of LPS induced lymphocyte proliferation,"[1]; in vitro, mouse spleen cells",30-180%
same,"effect on B-cell response / LPS induced proliferation, in words","[1]; in vitro, listed as Ia",stimulating the B-cell response
same,percent of theta positive cells,[2]; .005-.01 μg/ml,14%
same,percent of theta positive cells,[2]; .05-.1 μg/ml,18%
same,percent of theta positive cells,[2]; .5-1.0 μg/ml,17%
same,"production of theta positive (T) cells, in words",[2]; in vitro,able to cause the production of T-cells from a T-cell deficient population
same,increase of theta positive cells over control values,"[2]; spleen cells from athymic mice, in vitro",125%
same,mortality,"[3]; 50 mg/kg i.p., Balb/C mice",no mortality
same,deaths,"[3]; 500 mg/kg p.o., Balb/c mice",no deaths
same,% E-rosettes (active),[4]; 5 × 10^-5 M,43%
same,% E-rosettes (active),[4]; 5 × 10^-7 M,55.5%
same,% E-rosettes (active),[4]; 5 × 10^-8 M,62.5%
same,% E-rosettes (active),[4]; 5 × 10^-9 M,58.5%
same,% E-rosettes (active),[4]; 5 × 10^-10 M,42%
same,activation at 50 µM,"[4]; Homo sapiens, Lymphocyte, 5 × 10^-5 M, read-out: % increase of active E-rosettes",10%
same,activation at 0.5 µM,"[4]; Homo sapiens, Lymphocyte, 5 × 10^-7 M, read-out: % increase of active E-rosettes",23%
same,activation at 0.05 µM,"[4]; Homo sapiens, Lymphocyte, 5 × 10^-8 M, read-out: % increase of active E-rosettes",36.5%
same,activation at 0.005 µM,"[4]; Homo sapiens, Lymphocyte, 5 × 10^-9 M, read-out: % increase of active E-rosettes",34%
same,activation at 0.0005 µM,"[4]; Homo sapiens, Lymphocyte, 5 × 10^-10 M, read-out: % increase of active E-rosettes",7.6%
